Here are results for three compounds from ChEMBL document CHEMBL1139123, “Rational design and synthesis of novel nucleotide anti-Giardia agents” (Bioorg Med Chem Lett, 2007).

Structures are written as SMILES. Values after ≈ are worked out from the molar mass of the structure shown.

Data set [1] is described as follows: Toxicity in bovine MDBK cells. Particulars: bovine (Bos taurus).
In data set [2] the test system is Giardia intestinalis. Nature of the data set: Antiprotozoal activity against Giardia lamblia WB6 trophozoites after 48 hrs. It is filed as functional. The note with it: Giardia duodenalis, WB6, 48 h.
The nature of data set [3]: Therapeutic index, ratio of IC50 for bovine MDBK cells to MIC for Giardia lamblia WB6. The note with it: cattle. It is filed as cell-based.
Data set [4] relates to Giardia intestinalis. As to the kind of experiment: Antiprotozoal activity against Giardia lamblia WB6 assessed as inhibition of cyst formation at 10 uM after 4 days relative to control. The note with it: Giardia duodenalis, WB6, 96 h. It is filed as functional.

A word on the IC50: it is the concentration that gives 50% inhibition. In general, MIC refers to the smallest concentration in the dilution series that meets the test's criterion for growth inhibition. By inhibition is commonly meant how much of the control response was suppressed.

Turning to `CC(=O)N[C@@H]1[C@@H](O)[C@H](O)[C@@H](CO)O[C@@H]1CCO`, it took 125 µM to reach half-maximal inhibition in data set [1] (IC50). In the data set on Giardia intestinalis [2], this compound had an MIC of 3.9 µM (≈ 0.972 µg/mL). For the same compound, the selectivity ratio in data set [3] turned out to be 32. Also, in the data set on Giardia intestinalis [4], the inhibition at 10 µM was 56.2%.

The compound `C=CC[C@H]1O[C@H](CO)[C@@H](O)[C@H](O)[C@H]1NC(C)=O` gave an IC50 in data set [1] of 60 µM. The MIC against Giardia intestinalis [2] was 15.6 µM (≈ 3.83 µg/mL). Further, the selectivity ratio in data set [3] is 17. Besides, the inhibition at 10 µM with Giardia intestinalis [4] came out at 9.7%.

In the case of `CC(=O)N[C@@H]1[C@@H](O)[C@H](O)[C@@H](CO)O[C@@H]1CCOP(=O)(O)CC[C@H]1O[C@@H](n2ccc(=O)[nH]c2=O)[C@H](O)[C@@H]1O`, the IC50 in data set [1] turned out to be 250 µM. In addition, the MIC against Giardia intestinalis [2] amounted to 3.9 µM (≈ 2.16 µg/mL). The selectivity ratio in data set [3] amounted to 64. Also, the inhibition at 10 µM in the data set on Giardia intestinalis [4] was determined as 27.5%.
